The text below walks through data of US11999727B2 (Tango Therapeutics, Inc., priority 2020, dated 2024).

Test [1] concerns the target T1, PRMT5 (Homo sapiens, UniProt O14744).
T1 construct: purchased Viva (custom protein)
The experiment in a line: PRMT5 biochemical IC50 assay with MTA as cofactor. The conditions noted are these: PRMT5, MTA as cofactor; read-out: MTA IC50.

Test [2] concerns the target T1, PRMT5. The experiment in a line: PRMT5 biochemical IC50 assay with no cofactor. The conditions noted are these: PRMT5, no cofactor. An excerpt: Table 1 indicates IC50 values (μM) against PRMT5 for exemplary compounds in the presence of SAM as cofactor, with no cofactor, and with MTA as cofactor, respectively (columns 4-6). […] Ki values can be calculated from the IC50 values as described in the Examples section. As detailed in the Examples section, for the assay performed in the presence of SAM, IC50=Ki×1.5 (Ki=IC50/1.5).

Test [3] addresses T1, PRMT5. The experiment in a line: PRMT5 biochemical IC50 assay with SAM as cofactor. The conditions noted are these: PRMT5, SAM as cofactor; read-out: SAM IC50.
Test [4] concerns HAP1 MTAP-deleted cell line. The experiment in a line: Viability assay, MTAP-deleted cell line. The class given is cell-based. An excerpt: Table 1 additionally indicates IC50 values in a viability assay for the MTAP-deleted cell line (column 10), indicating the effect of treatment with compound on cell survival.
Test [5] has as its system HAP1 MTAP-deleted cell line. The experiment in a line: SDMA in-cell western assay, HAP1 MTAP-deleted. The class given is cell-based. The conditions noted are these: for IC50: Homo sapiens; for MTAP intact/deleted ratio: SDMA in-cell western. From the text:
Table 1 also indicates IC50 values in an MTAP-isogenic cell line pair for exemplary compounds in an SDMA in-cell western assay (columns 7-8). HAP1 MTAP-intact is a cell line in which endogenous levels of MTAP are expressed, and HAP1 MTAP-deleted is an MTAP-null cell line.

The mark [6] stands for this setting: Homo sapiens, HAP1, read-out: HAP1 MTAP deleted viability.
[7] abbreviates: read-out: No Cofactor/ rel IC50.

Molecules are shown by their SMILES.

T1 sequence (O14744 whole entry): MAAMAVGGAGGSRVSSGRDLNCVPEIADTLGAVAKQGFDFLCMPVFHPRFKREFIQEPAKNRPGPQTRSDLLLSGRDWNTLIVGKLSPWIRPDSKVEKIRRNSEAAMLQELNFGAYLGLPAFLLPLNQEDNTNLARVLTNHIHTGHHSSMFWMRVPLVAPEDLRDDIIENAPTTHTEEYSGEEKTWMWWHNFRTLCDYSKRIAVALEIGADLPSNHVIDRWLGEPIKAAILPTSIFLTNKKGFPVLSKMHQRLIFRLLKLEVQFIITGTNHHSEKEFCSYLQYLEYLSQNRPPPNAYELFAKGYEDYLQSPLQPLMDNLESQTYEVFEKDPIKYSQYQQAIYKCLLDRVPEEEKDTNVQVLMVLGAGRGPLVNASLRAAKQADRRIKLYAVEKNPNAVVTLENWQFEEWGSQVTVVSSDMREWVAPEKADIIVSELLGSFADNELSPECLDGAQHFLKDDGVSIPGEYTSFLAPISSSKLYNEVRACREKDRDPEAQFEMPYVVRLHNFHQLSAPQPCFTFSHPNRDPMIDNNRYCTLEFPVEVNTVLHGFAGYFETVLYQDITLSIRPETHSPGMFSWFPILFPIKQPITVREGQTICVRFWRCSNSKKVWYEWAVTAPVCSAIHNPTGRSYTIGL
T1 sequence (Q9BQA1 whole entry partner): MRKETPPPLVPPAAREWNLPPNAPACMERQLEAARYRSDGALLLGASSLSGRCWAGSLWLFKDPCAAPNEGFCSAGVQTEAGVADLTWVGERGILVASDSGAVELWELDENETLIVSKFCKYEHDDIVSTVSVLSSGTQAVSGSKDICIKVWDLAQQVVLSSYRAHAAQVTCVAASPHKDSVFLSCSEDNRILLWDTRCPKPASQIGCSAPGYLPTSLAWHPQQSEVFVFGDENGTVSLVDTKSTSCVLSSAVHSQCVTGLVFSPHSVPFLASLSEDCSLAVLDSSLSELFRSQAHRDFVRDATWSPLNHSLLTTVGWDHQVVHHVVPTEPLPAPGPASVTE

`NC(=O)c1cncc(NC(=O)C(=O)N2C[C@H](OC(F)F)CC[C@@H]2c2ccccc2)c1` (racemic) [Compound 400, 5-[[2-[(2R,5R)-5-(Difluoromethoxy)-2-phenyl-1-piperidyl]-2-oxo-acetyl]amino]pyridine-3-carboxamide]: the IC50 at PRMT5 [1] is 50 to 500 nM; at PRMT5 [2] (read-out: No Cofactor/rel IC50) it was more than 500 nM; on PRMT5 [3] it was more than 500 nM.

As to `Cc1cc(NC(=O)C(=O)N2C[C@H](C)CC[C@H]2c2ccccc2)cnc1N` (single isomer, unassigned) [Compound 40], in test [4] (setting [6]), the IC50 was more than 10000 nM.

Take `NC(=O)c1cncc(NC(=O)C(=O)N2C[C@@H](CO)CC[C@H]2c2ccccc2)c1` (racemic) [Compound 285, 5-(2-(5-(hydroxymethyl)-2-phenylpiperidin-1-yl)-2-oxoacetamido)nicotinamide]: the IC50 is 50 to 500 nM at PRMT5 [1], more than 500 nM on PRMT5 [2] (read-out: No Cofactor/rel IC50) and more than 500 nM on PRMT5 [3].

Regarding `Cc1cc(NC(=O)C(=O)N2C[C@H](C)CC[C@H]2c2ccc3c(c2)CC(=O)N3)cnc1N` (single isomer, unassigned) [Compound 677], the IC50 in test [4] (setting [6]) is more than 10000 nM.

As for `Cc1cc(NC(=O)C(=O)N2C[C@@H](C)CC[C@@H]2c2ccc(C(F)F)cc2)cnc1N` (single isomer, unassigned) [Compound 410], in test [4] (setting [6]), the IC50 is more than 10000 nM.

Take `NC(=O)c1cncc(NC(=O)C(=O)N2C[C@H](OC(F)(F)F)CC[C@H]2c2ccccc2)c1` (racemic) [Compound 411, 5-[[2-Oxo-2-[2-phenyl-5-(trifluoromethoxy)-1-piperidyl]acetyl]amino]pyridine-3-carboxamide]: the IC50 is 50 to 500 nM at PRMT5 [1], more than 500 nM on PRMT5 [2] (read-out: No Cofactor/rel IC50) and more than 500 nM on PRMT5 [3].

Consider `Cc1ccc([C@H]2CC[C@H](C)CN2C(=O)C(=O)Nc2cncc(C(N)=O)c2)cn1` (single isomer, unassigned) [Compound 645], for which the IC50 on PRMT5 [1], at PRMT5 [2] (read-out: No Cofactor/rel IC50) and on PRMT5 [3] was more than 500 nM each time.

As to `Cc1cc(NC(=O)C(=O)N2CCCC[C@@H]2c2cccnc2)cnc1N` (single isomer, unassigned) [Compound 74], the IC50 at PRMT5 [1] was 50 to 500 nM; on PRMT5 [2] (setting [7]), more than 500 nM; on PRMT5 [3] it was more than 500 nM.

`Cc1cc(NC(=O)C(=O)N2C[C@@H](C)CC[C@@H]2c2cccc(N(C)C)c2)cnc1N` (single isomer, unassigned) [Compound 387]: the IC50 at PRMT5 [1], at PRMT5 [2] (read-out: No Cofactor/rel IC50) and on PRMT5 [3] was more than 500 nM in each case.

On to `Cc1cncc(NC(=O)C(=O)N2C[C@@H](C)CC[C@@H]2c2ccc(C)c(C)c2)c1` (single isomer, unassigned) [Compound 19], for which the IC50 on PRMT5 [1], at PRMT5 [2] (setting [7]) and on PRMT5 [3] was more than 500 nM each time.

For the compound `CC[C@H]1CC[C@@H](c2ccccc2)N(C(=O)C(=O)Nc2cncc(C)c2)C1` (single isomer, unassigned) [Compound 20], the IC50 on PRMT5 [1], on PRMT5 [2] (setting [7]) and at PRMT5 [3] was more than 500 nM in each case.

For `CNc1ccc([C@@H]2CC(F)(F)[C@@H](C)CN2C(=O)C(=O)Nc2cnc(N)c(C)c2)cn1` (racemic) [Compound 1054], the IC50 at PRMT5 [1], at PRMT5 [2] (read-out: No Cofactor/rel IC50) and on PRMT5 [3] was 50 to 500 nM in each case.

As for `C[C@@H]1CC[C@@H](c2ccccc2)N(C(=O)C(=O)Nc2cncc(C(N)=O)c2)C1` (single isomer, unassigned) [Compound 71], the IC50 in test [5] (HAP1, read-out: HAP1 MTAP deleted IC50) is more than 1000 nM; in test [4] (setting [6]), more than 10000 nM.

`Cc1cc(NC(=O)C(=O)N2C[C@H](C)CC[C@H]2c2ccc3c(c2)CCC(=O)N3)cnc1C(F)(F)F` (racemic) [Compound 650, 2-[(2R,5S)-5-Methyl-2-(2-oxo-3,4-dihydro-1H-quinolin-6-yl)-1-piperidyl]-N-[5-methyl-6-(trifluoromethyl)-3-pyridyl]-2-oxo-acetamide]: the IC50 on PRMT5 [1], at PRMT5 [2] (read-out: No Cofactor/rel IC50) and at PRMT5 [3] was 50 to 500 nM throughout.

Turning to `Cc1cc(NC(=O)C(=O)N2C[C@@H](C)CC[C@@H]2c2cccs2)cnc1N` (single isomer, unassigned) [Compound 122], the IC50 at PRMT5 [1], on PRMT5 [2] (setting [7]) and at PRMT5 [3] was more than 500 nM in each case.

For `Cc1cc(NC(=O)C(=O)N2CCC(N(C)C)C[C@H]2c2ccccc2)cnc1N` (mixture of isomers) [Compound 975, N-(6-amino-5-methyl-3-pyridyl)-2-[(2S,4S)-4-(dimethylamino)-2-phenyl-1-piperidyl]-2-oxo-acetamide], the IC50 on PRMT5 [2] (read-out: No Cofactor/rel IC50) and on PRMT5 [3] was more than 500 nM in each case.

On to `Cc1cc(NC(=O)C(=O)N2C[C@H](C)[C@H](C)C[C@@H]2c2ccccc2)cnc1N` (single isomer, unassigned) [Compound 299], for which the IC50 at PRMT5 [1], on PRMT5 [2] (read-out: No Cofactor/rel IC50) and at PRMT5 [3] was more than 500 nM throughout.

As to `C[C@@H]1CC[C@H](c2cccnc2)N(C(=O)C(=O)Nc2cncc(C(N)=O)c2)C1` (single isomer, unassigned) [Compound 98], the IC50 on PRMT5 [1], on PRMT5 [2] (setting [7]) and at PRMT5 [3] was more than 500 nM each time.

As to `C[C@H]1C[C@@H](C)[C@H](c2ccccc2)N(C(=O)C(=O)Nc2cncc(C(N)=O)c2)C1` (single isomer, unassigned) [Compound 275, 5-(2-(3,5-dimethyl-2-phenylpiperidin-1-yl)-2-oxoacetamido)nicotinamide], the IC50 at PRMT5 [1], at PRMT5 [2] (read-out: No Cofactor/rel IC50) and at PRMT5 [3] was more than 500 nM in each case.

With `Cc1cc([C@H]2CC[C@H](C)CN2C(=O)C(=O)Nc2cncc(C(N)=O)c2)ccc1O` (single isomer, unassigned) [Compound 330], the IC50 on PRMT5 [1], at PRMT5 [2] (read-out: No Cofactor/rel IC50) and at PRMT5 [3] was more than 500 nM in each case.

`C[C@@H]1CC[C@@H](c2cc(Cl)cc(C(F)(F)F)c2)N(C(=O)C(=O)Nc2cncc(C(N)=O)c2)C1` (single isomer, unassigned) [Compound 653]: the IC50 on PRMT5 [1], on PRMT5 [2] (read-out: No Cofactor/rel IC50) and at PRMT5 [3] was more than 500 nM in each case.

On to `Cc1cncc(NC(=O)C(=O)N2C(C)C(C)CC[C@H]2c2ccccc2)c1` (single isomer, unassigned) [Compound 41], for which the IC50 in test [4] (setting [6]) was more than 10000 nM.

`C[C@H]1CC[C@@H](c2ccc(O)nc2)N(C(=O)C(=O)Nc2cncc(C(N)=O)c2)C1` (single isomer, unassigned) [Compound 402]: the IC50 at PRMT5 [1], on PRMT5 [2] (read-out: No Cofactor/rel IC50) and at PRMT5 [3] was more than 500 nM each time.

Turning to `CC[C@H]1CC[C@H](c2ccccc2)N(C(=O)C(=O)Nc2cncc(C)c2)C1` (single isomer, unassigned) [Compound 18], the IC50 on PRMT5 [1] and on PRMT5 [3] was more than 500 nM in each case.

On to `CCc1cc(NC(=O)C(=O)N2C[C@@H](C)[C@@H](OC(C)C)C[C@@H]2c2ccc3scnc3c2)cnc1N` (racemic) [Compound 1235], for which, in test [5] (IC50 ratio HAP1 MTAP-intact vs HAP1 MTAP-deleted), the MTAP intact/deleted ratio result is “A (an IC50 ratio greater than or equal to 10 fold)”. The IC50 in test [4] (viability assay, MTAP-deleted cell line, read-out: HAP1 MTAP deleted viability) is less than 1000 nM.

Turning to `COc1ncc(NC(=O)C(=O)N2C[C@@H](C)CC[C@@H]2c2ccc3sc(CCN(C)C)nc3c2)cc1C(N)=O` (single isomer, unassigned) [Compound 1378], the IC50 at PRMT5 [2] (setting [7]) is less than 50 nM; in test [5] (HAP1, SDMA in-cell western, HAP1 MTAP-deleted, read-out: HAP 1 MTAP deleted IC50), less than 100 nM; in test [4] (Homo sapiens, HAP1, viability, HAP1 MTAP-deleted cell line, read-out: HAP1 MTAP deleted viability) it was less than 1000 nM. For the same compound, the “MTAP intact/deleted ratio” value in test [5] (IC50 ratio HAP1 MTAP-intact / HAP1 MTAP-deleted) is “A (an IC50 ratio greater than or equal to 10 fold)”.
